One series has as its system ALDH-2. Kind of series: Liver ALDH-2 activity. It counts as in vivo, Wistar rats. As to conditions: STZ diabetic rats, 7 weeks of treatment. The procedure:
(§1) Type I diabetes in Wistar rats (8 weeks old, 250-300 g) are induced by a single i.v. injection of STZ (60 mg/kg). The blood glucose level is measured 3 days after STZ injection (to test whether diabetes was induced) and on the day of sacrifice. One week after injection empagliflozin (SGLT2-i) was administered with drinking water for additional 7 weeks (10 and 30 mg/kg/d p.o.).

The nature of series [1]: Serum levels of insulin and interferon-gamma in STZ diabetic rats. As to conditions: 7 weeks of treatment. It counts as in vivo, Wistar rats. The procedure:
as §1

Another series concerns aortic wall. Kind of series: Aortic wall thickness and collagen content by sirius red staining. It counts as in vivo, Wistar rats. The conditions noted are these: STZ diabetic rats. As for the experimental part:
Aortic wall thickness and collagen content were also measured microscopically after sirius red staining. Aortic segments were fixed in parafomaldehyde (4%) and paraffin-embedded. Sirius red staining for vascular fibrosis was performed with paraffin-embedded samples of aortic tissue upon de-paraffination. Afterwards the nuclei were prestained with hemalum. Then samples were stained for 1 hour in 0.1% with Sirius red solution containing saturated picric acid (1.2%). Finally, tissue samples were dehydrated with 70%, 96% and 100% isopropanol and coverslipped with a solution of polymers in xylene. 60-70 measurements were made per sample, n=6-7 animals/groups.
FIGS. 16A and 16B: Microscopic determination of aortic wall thickness and collagen content by sirius red staining of aortic paraffinated sections. Quantification (FIG. 16A) and representative microscope images (FIG. 16B).

The subject of series [2] is superoxide formation in aortic vessels. As to the kind of experiment: DHE staining of aortic cryosections (vascular superoxide formation). It counts as in vivo, Wistar rats. The conditions noted are these: STZ diabetic rats, 7 weeks of treatment. As for the experimental part:
as §1

Another series relates to NADPH oxidase. Kind of series: NADPH oxidase activity in cardiac tissue. It counts as in vivo, Wistar rats. As to conditions: STZ diabetic rats, 7 weeks of treatment. As for the experimental part: as §1
In a further series the test system is patients with T1D. Kind of series: Blood pressure, arterial stiffness, HRV and adrenergic mediators in normotensive T1D patients under clamped euglycemia and hyperglycemia. It counts as in vivo, human. The procedure: Blood pressure, arterial stiffness, heart rate variability (HRV) and circulating adrenergic mediators were measured during clamped euglycemia and hyperglycemia in 40 normotensive patients with T1D. Studies were repeated after 8 weeks of empagliflozin (25 mg daily).
Augmentation index (Alx) for the radial and carotid arteries as well as a derived aortic Alx and carotid, radial and femoral pulse wave velocities (PWV) are measured for assessment of arterial stiffness using a SphygmoCor® System (AtCor Medical Inc., Itasca, Ill.).

Series [3] deals with leukocyte-derived reactive oxygen species (ROS) in blood. As to the kind of experiment: PDBu/zymosan A-stimulated chemiluminescence, oxidative burst in blood. It counts as in vivo, Wistar rats. As to conditions: PDBu or zymosan A stimulation; STZ diabetic rats, 7 weeks, low (10 mg/kg) or high (30 mg/kg) dose. The procedure:
as §1
FIGS. 3-9: Quantification of reactive oxygen species of (ROS) from leukocyte upon stimulation with zymosan A (ZymA). After 7 weeks of treatment, ROS production in blood is reduced either with the low or high dose of empagliflozin to level close to none diabetic animal.

Series [4] deals with STZ-induced diabetes mellitus (Type I) in rat. Kind of series: Blood glucose and weight gain in STZ-induced type I diabetic rats. In kind it is in vivo, Wistar rats. As to conditions: 10 and 30 mg/kg/d p.o. in drinking water for 7 weeks. The procedure:
as §1

The next series relates to isolated aortic rings. Kind of series: Isometric tension recordings of isolated aortic rings (vasorelaxation). It counts as in vivo, Wistar rats. The procedure: as §1
FIG. 2: A: Endothelial dependant vasorelaxation. […] B: Endothelial independent vasorelaxation obtain with glyceryl trinitrate (GTN) a NO donor.

Each structure is given as a SMILES string. “Also recorded” adds a separate entry of the source.

As for `OC[C@H]1O[C@@H](c2ccc(Cl)c(Cc3ccc(O[C@H]4CCOC4)cc3)c2)[C@H](O)[C@@H](O)[C@@H]1O` [empagliflozin, 1-chloro-4-(β-D-glucopyranos-1-yl)-2-[4-((S)-tetrahydrofuran-3-yloxy)-benzyl]-benzene], the “ALDH-2 activity (liver)” value with ALDH-2 is “partly restored”. Moreover, the insulin level result in series [1] (STZ diabetic rats) is listed as “restore insulin level”. Moreover, the “interferon γ (marker of inflammation)” value in [1] (elevation in STZ diabetic rats) is reported as “highly diminished or suppressed”. Also, in the series with aortic wall, the aortic collagen content entry was “normalized” and the aortic wall thickness result is “normalized”. For the same molecule, the “oxidative stress / superoxide formation in aortic vessels” value in series [2] is recorded as “reduced oxidative stress”. In the series with NADPH oxidase, the “NADPH oxidase activity in the cardiac tissue” value is given as “diminished”. Further, in the series with patients with T1D (both glycemic conditions, 8 weeks of 25 mg daily, p≤0.0001), the “carotid-radial pulse wave velocity” value is given as “decreased significantly”. The systolic blood pressure in the series on patients with T1D (clamped euglycemia, after 8 weeks of 25 mg daily, before treatment 111±9, p=0.0187) was 109±9 mmHg. Further, in the series on patients with T1D (clamped euglycemia, after 8 weeks of 25 mg daily, before treatment +0.1±13.4, p<0.0001), the “augmentation index, aortic (derived)” value is reported as −6.2±14.3%. In addition, in the series on patients with T1D (clamped euglycemia, after 8 weeks of 25 mg daily, before treatment +1.3±17.0, p<0.0001), the “augmentation index, carotid” value is −5.7±17.0%. Moreover, in the series on patients with T1D (clamped euglycemia, after 8 weeks of 25 mg daily, before treatment −52±16, p<0.0001), the “augmentation index, radial” value is −57±17%. For the same molecule, the blood pressure effects result with patients with T1D (clamped hyperglycemia, 8 weeks of 25 mg daily) is reported as “not significant”. Besides, the “carotid-femoral pulse wave velocity” value in the series with patients with T1D (clamped hyperglycemia, after 8 weeks of 25 mg daily, before treatment 5.7±1.1, p=0.0017) stood at 5.2±0.9 m/s. The “arterial stiffness (overall conclusion)” value in the series with patients with T1D (patients with uncomplicated T1D, 8 weeks of 25 mg daily) is given as “reduces arterial stiffness”. Besides, in [3], the “oxidative stress in blood / ROS production from leukocytes” value is reported as “reduced oxidative stress”. The blood glucose levels entry in series [4] is given as “distinct reduction”. The “endothelial independent vasorelaxation with GTN: effect on smooth muscle cells” value in the series with isolated aortic rings (isolated aortic rings after 7 weeks of treatment, glyceryl trinitrate as NO donor) is listed as “absence of deleterious effect”. In addition, in the series with isolated aortic rings (isolated aortic rings of STZ diabetic rats after 7 weeks of treatment), the “endothelial function (endothelial dependent vasorelaxation)” value is reported as “normalization of endothelial function; also recorded: improvement of endothelial function”.
